Results taken from patent US20140155376A1, “PYRROLOPYRAZINE KINASE INHIBITORS” (Hoffmann-La Roche Inc., priority 2010, published 2014).

target: T1, JAK3 (recombinant human kinase domain; h-jak3(810-1124)) (Homo sapiens, UniProt P52333); test: Determination of IC50 of Janus Kinase (JAK) inhibition: JAK3, radioactive end-point assay with 33P-ATP; format: biochemical; settings: JAK3 kinase domain; ATP 1.5 uM, peptide 50 uM, 20 minutes, room temperature, 10% DMSO; read-out: Ic50 h-jak3(810-1124)-sf9-c:no additive
T1 construct: h-jak3(810- 1124)-sf9-c; made in house; host or cells: Sf9 insect cells
T1 sequence (P52333 810-1124): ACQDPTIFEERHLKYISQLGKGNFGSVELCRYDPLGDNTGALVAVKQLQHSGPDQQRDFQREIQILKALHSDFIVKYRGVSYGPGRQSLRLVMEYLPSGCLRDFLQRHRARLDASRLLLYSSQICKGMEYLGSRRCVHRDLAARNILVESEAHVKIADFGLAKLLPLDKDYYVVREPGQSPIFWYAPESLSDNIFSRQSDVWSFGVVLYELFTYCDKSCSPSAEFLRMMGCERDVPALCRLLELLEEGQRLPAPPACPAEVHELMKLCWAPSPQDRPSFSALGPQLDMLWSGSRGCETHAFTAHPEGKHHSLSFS

SMILES | IC50 [nM]
CON(C)C(=O)c1ccc(-c2cnc3[nH]cc(C(=O)N[C@@H](C)C(C)(C)C)c3n2)s1 [Example I-196, 2-[5-(Methoxy-methyl-carbamoyl)-thiophen-2-yl]-5H-pyrrolo[2,3-b]pyrazine-7-carboxylic acid ((S)-1,2,2-trimethyl-propyl)-amide] | 0.47
C[C@H](NC(=O)c1c[nH]c2ncc(-c3ccc(C(=O)NCc4cccc(C#N)c4)s3)nc12)C(C)(C)C [Example I-227, 2-[5-(3-Cyano-benzylcarbamoyl)-thiophen-2-yl]-5H-pyrrolo[2,3-b]pyrazine-7-carboxylic acid ((S)-1,2,2-trimethyl-propyl)-amide] | 10.6
C[C@H](NC(=O)c1c[nH]c2ncc(-c3ccc(C(=O)NC(C)(C)C)s3)nc12)C(C)(C)C [Example I-157, 2-(5-tert-Butylcarbamoyl-thiophen-2-yl)-5H-pyrrolo[2,3-b]pyrazine-7-carboxylic acid ((S)-1,2,2-trimethyl-propyl)-amide] | 0.43
Cc1csc(CNC(=O)c2ccc(-c3cnc4[nH]cc(C(=O)N[C@@H](C)C(C)(C)C)c4n3)s2)c1 [Example I-192, 2-{5-[(4-Methyl-thiophen-2-ylmethyl)-carbamoyl]-thiophen-2-yl}-5H-pyrrolo[2,3-b]pyrazine-7-carboxylic acid ((S)-1,2,2-trimethyl-propyl)-amide] | 0.4
C[C@H](Cc1cnc[nH]1)NC(=O)c1ccc(-c2cnc3[nH]cc(C(=O)N[C@@H](C)C(C)(C)C)c3n2)s1 [Example I-199, 2-{5-[(R)-2-(3H-Imidazol-4-yl)-1-methyl-ethylcarbamoyl]-thiophen-2-yl}-5H-pyrrolo[2,3-b]pyrazine-7-carboxylic acid ((S)-1,2,2-trimethyl-propyl)-amide] | 0.65
CC(C)NC(=O)c1c[nH]c2ncc(Oc3ccc4cc[nH]c4c3)nc12 [Example I-272, 2-(1H-Indol-6-yloxy)-5H-pyrrolo[2,3-b]pyrazine-7-carboxylic acid isopropylamide] | 29.3
CC(Cc1ccccn1)NC(=O)c1ccc(-c2cnc3[nH]cc(C(=O)N[C@@H](C)C(C)(C)C)c3n2)s1 (stereo partly drawn) [Example I-176, 2-[5-(1-Methyl-2-pyridin-2-yl-ethylcarbamoyl)-thiophen-2-yl]-5H-pyrrolo[2,3-b]pyrazine-7-carboxylic acid ((S)-1,2,2-trimethyl-propyl)-amide] | 0.46
Cc1cccc(Oc2cnc3[nH]cc(C(=O)NC(C)C)c3n2)n1 [Example I-278, 2-(6-Methyl-pyridin-2-yloxy)-5H-pyrrolo[2,3-b]pyrazine-7-carboxylic acid isopropylamide] | 491
CC(C)NC(=O)c1c[nH]c2ncc(Oc3cccc(C(C)(C)C)c3)nc12 [Example I-231, 2-(3-tert-Butyl-phenoxy)-5H-pyrrolo[2,3-b]pyrazine-7-carboxylic acid isopropylamide] | 4220
CC(C)NC(=O)c1c[nH]c2ncc(Oc3ccc4c(c3)[C@@H](O)CC4)nc12 [Example I-304, 2-((S)-3-Hydroxy-indan-5-yloxy)-5H-pyrrolo[2,3-b]pyrazine-7-carboxylic acid isopropylamide] | 155
CC(C)NC(=O)c1c[nH]c2ncc(Oc3cccc4ccccc34)nc12 [Example I-241, 2-(Naphthalen-1-yloxy)-5H-pyrrolo[2,3-b]pyrazine-7-carboxylic acid isopropylamide] | 677
CC(C)NC(=O)c1c[nH]c2ncc(Oc3cccc4c3OC(C)(C)C4)nc12 [Example I-254, 2-(2,2-Dimethyl-2,3-dihydro-benzofuran-7-yloxy)-5H-pyrrolo[2,3-b]pyrazine-7-carboxylic acid isopropylamide] | 2990
Cc1cccc(-n2cnc(-c3cnc4[nH]cc(C(=O)N[C@@H](C)C(C)(C)C)c4n3)c2)c1 [Example I-150, 2-(1-m-Tolyl-1H-imidazol-4-yl)-5H-pyrrolo[2,3-b]pyrazine-7-carboxylic acid ((S)-1,2,2-trimethyl-propyl)-amide] | 5.12
CCNC(=O)c1c[nH]c2ncc(Oc3cccc4[nH]ccc34)nc12 [Example I-275, 2-(1H-Indol-4-yloxy)-5H-pyrrolo[2,3-b]pyrazine-7-carboxylic acid ethylamide] | 626
CC1CCCCC1NC(=O)c1ccc(-c2cnc3[nH]cc(C(=O)N[C@@H](C)C(C)(C)C)c3n2)s1 (stereo partly drawn) [Example I-190, 2-[5-(2-Methyl-cyclohexyl-carbamoyl)-thiophen-2-yl]-5H-pyrrolo[2,3-b]pyrazine-7-carboxylic acid ((S)-1,2,2-trimethyl-propyl)-amide] | 0.69
C[C@H](NC(=O)c1c[nH]c2ncc(-c3ccc(C(=O)N(C)Cc4ccc(F)cc4)s3)nc12)C(C)(C)C [Example I-205, 2-{5-[(4-Fluoro-benzyl)-methyl-carbamoyl]-thiophen-2-yl}-5H-pyrrolo[2,3-b]pyrazine-7-carboxylic acid ((S)-1,2,2-trimethyl-propyl)-amide] | 0.76
CCNC(=O)c1c[nH]c2ncc(Oc3ccccc3C)nc12 [Example I-257, 2-o-Tolyloxy-5H-pyrrolo[2,3-b]pyrazine-7-carboxylic acid ethylamide] | 2740
C[C@H](NC(=O)c1c[nH]c2ncc(-c3ccc(C(=O)NC4CCOCC4)s3)nc12)C(C)(C)C [Example I-225, 2-[5-(Tetrahydro-pyran-4-ylcarbamoyl)-thiophen-2-yl]-5H-pyrrolo[2,3-b]pyrazine-7-carboxylic acid ((S)-1,2,2-trimethyl-propyl)-amide] | 0.19

The remaining lines, values ahead:

IC50 [nM] | SMILES
121 | C[C@@H]1C[C@H]1c1cnc2[nH]cc(C(=O)NCC(C)(C)CO)c2n1 [Example I-43, 2-((1R,2R)-2-Methyl-cyclopropyl)-5H-pyrrolo[2,3-b]pyrazine-7-carboxylic acid (3-hydroxy-2,2-dimethyl-propyl)-amide]
5.46 | C[C@H](NC(=O)c1c[nH]c2ncc(C3CC3)nc12)C(C)(C)C(F)(F)F [Example I-54, 2-Cyclopropyl-5H-pyrrolo[2,3-b]pyrazine-7-carboxylic acid ((S)-3,3,3-trifluoro-1,2,2-trimethyl-propyl)-amide]
40.7 | CC(C)(O)C(C)(C)NC(=O)c1c[nH]c2ncc(C3CC3)nc12 [Example I-79, 2-Cyclopropyl-5H-pyrrolo[2,3-b]pyrazine-7-carboxylic acid (2-hydroxy-1,1,2-trimethyl-propyl)-amide]
154 | C[C@H](NC(=O)c1c[nH]c2ncc(Oc3ccc(F)cc3F)nc12)C(C)(C)C [Example I-133, 2-(2,4-Difluoro-phenoxy)-5H-pyrrolo[2,3-b]pyrazine-7-carboxylic acid ((S)-1,2,2-trimethyl-propyl)-amide]
92.4 | CC(C)(O)[C@@H](NC(=O)c1c[nH]c2ncc(C3CC3)nc12)C1CC1 [Example I-73, 2-Cyclopropyl-5H-pyrrolo[2,3-b]pyrazine-7-carboxylic acid ((S)-1-cyclopropyl-2-hydroxy-2-methyl-propyl)-amide]
681 | N#CCNC(=O)c1c[nH]c2ncc(C3CC3)nc12 [Example I-28, 2-Cyclopropyl-5H-pyrrolo[2,3-b]pyrazine-7-carboxylic acid cyanomethyl-amide]
16.3 | O=C(N[C@H](C1CC1)C1(O)CCCC1)c1c[nH]c2ncc(C3CC3)nc12 [Example I-104, 2-Cyclopropyl-5H-pyrrolo[2,3-b]pyrazine-7-carboxylic acid [(R)-cyclopropyl-(1-hydroxy-cyclopentyl)-methyl]-amide]
5.23 | C[C@H](NC(=O)c1c[nH]c2ncc(C3=CCCC3)nc12)C(C)(C)O [Example I-2, 2-Cyclopent-1-enyl-5H-pyrrolo[2,3-b]pyrazine-7-carboxylic acid ((S)-2-hydroxy-1,2-dimethyl-propyl)-amide]
20.6 | N#CC[C@@H](NC(=O)c1c[nH]c2ncc(C3CC3)nc12)C1CC1 [Example I-135, 2-Cyclopropyl-5H-pyrrolo[2,3-b]pyrazine-7-carboxylic acid ((R)-2-cyano-1-cyclopropyl-ethyl)-amide]
3.8 | CC(NC(=O)c1c[nH]c2ncc(C3CC3)nc12)C(C)(C)CO (stereo not shown) [Example I-71, 2-Cyclopropyl-5H-pyrrolo[2,3-b]pyrazine-7-carboxylic acid (3-hydroxy-1,2,2-trimethyl-propyl)-amide]
87 | CC(NC(=O)c1c[nH]c2ncc(C3CC3)nc12)c1ccccn1 (stereo not shown) [Example I-70, 2-Cyclopropyl-5H-pyrrolo[2,3-b]pyrazine-7-carboxylic acid (1-pyridin-2-yl-ethyl)-amide]
262 | COC[C@@H](NC(=O)c1c[nH]c2ncc(C3CC3)nc12)C(C)(C)C [Example I-65, 2-Cyclopropyl-5H-pyrrolo[2,3-b]pyrazine-7-carboxylic acid ((S)-1-methoxymethyl-2,2-dimethyl-propyl)-amide]
30.5 | C[C@H](NC(=O)c1c[nH]c2ncc(C3CC3)nc12)[C@](C)(O)C(F)(F)F [Example I-63, 2-Cyclopropyl-5H-pyrrolo[2,3-b]pyrazine-7-carboxylic acid ((1S,2S)-3,3,3-trifluoro-2-hydroxy-1,2-dimethyl-propyl)-amide]
